# Source: US8673882B2, “Inhibitors of autotaxin” (University of Tennessee Research Foundation, priority 2011, dated 2014)
# pIC50, pKi: −log10 of the molar value. Entries after “also recorded” stand apart in the source; their conditions may differ. Like-named read-outs stand apart in the source and are kept apart here.
# What was measured:
# [1] = system: MM1 hepatocarcinoma cells; test: Invasion of HUVEC monolayer by MM1 cells; format: cell-based, rat; settings: for LPC-dependent invasion of the HUVEC monolayer: 1.5 μM LPC, FIG. 14; for basal rate of invasion: compounds alone, without LPC
# From the text: Cancer metastasis is a complex process that cannon be accurately modeled in vitro. Models that utilize cellular monolayers for the invasion of carcinoma cell come the closest to the situation in vivo. Two different cell monolayers, mouse mesothelium and human vascular endothelium were used to examine the role of ATX in the invasion of MM1 hepatocarcinoma cells and the reduction of such invasion by the chemical compounds of the present application. The mesothelial monolayer is an accepted model for invasion of body cavities lined by serous cells whereas, the HUVEC monolayer is considered to be an in vitro model of hematogenous invasion of carcinomas.
# Highly invasive MM1 cells originally isolated from the AH130 rat hepatoma cells were utilized in these studies. The cells were grown in suspension in DMEM supplemented with 10% fetal bovine serum, 2 mM glutamine, 100 units/ml penicillin and 10 μg/ml streptoinycin. Mesothelial cells were isolated and cultured from C57BL/6 mice. Human umbilical cord vascular endothelial cells (HUVEC) were obtained from VEC Technologies Inc., (Rensselaer, N.Y., USA) and were grown in MCDB-131 complete medium containing 10% fetal bovine serum. 90 μg/ml heparin, 10 ng/ml EGF, 1 μg/ml hydrocortisone, 0.2 mg/ml EndoGrowth supplement, 100 units/ml penicillin G, 100 μg/ml streptomycin and 25 μg/ml amphotericin B (all from VEC Technologies). Tumor cell invasion was performed by seeding 1.3×10^5 HUVECs (passage 7) into each well of a 12-well plate pre-coated with 0.2% gelatin (Sigma) and cultured for 2 days to form a confluent monolayer. Mesothelial cells harvested from two-three mice were initially plated in 6-well plates and grown to confluency in DMEM medium supplemented with 10% fetal bovine serum in the presence of 100 units/ml penicillin G and 10 μg/ml streptomycin. When confluent, the mesothelial cells were split into three equal aliquots (˜5×10^4 cells each) and plated to three wells of a 12-well plate and grown to confluence.
# Invasion of MM1 cells of Example 53 was determined and the effect of compounds of the present application in reducing the invasion was determined. For all invasion assays, MM1 cells were pre-stained with 2 μg/ml calcein AM (Invitrogen, USA) for 2 h, rinsed once, and seeded at a density of 5×10^4 cells/well over the monolayers. Tumor cells were left to invade the HUVEC monolayer for 24 h in MCDB-131 complete media containing 1% serum with or without addition of 1.5 μM LPC. MM1 cells were plated on the mesothelial monolayers in 2% fetal bovine serum-supplemented DMEM medium in the presence of 100 units/ml penicillin G and 10 μg/ml streptomycin with or without 1.5 μM LPC (5 μM for the mesothelium cells) and invasion was allowed to proceed for 20 h. The day after MM1 cell seeding, non-invaded tumor cells were removed by repeated five rinses of the HUVEC monolayer (three rinses for the mesothelial monolayers) with PBS (containing Ca^2+ and Mg^2+) followed by fixation with 10% buffered formalin. The number of tumor cells that penetrated the monolayer was photographed under a NIKON TiU inverted microscope using phase-contrast and fluorescence illumination in a minimum of five non-overlapping fields at 100× magnification. The fluorescent images were overlayed on top of the phase contrast images using the Elements BR software (version 3.1x) and the invaded MM1 cells showing the characteristic flattened morphology in the plane of focus underneath the monolayer were counted. […]
# [2] = target: recombinant, purified human ATX (Homo sapiens, UniProt Q13822); test: Mechanism of autotaxin inhibition (IC50, Ki, Ki′; FS-3 hydrolysis); format: biochemical; settings: for pIC50: 8.3 nM ATX, 1 μM FS-3, 15 μM BSA; for ATX Mechanism of inhibition: FS-3 0.3 μM to 20 μM, inhibitor 0, 0.5× and 2× IC50
# Experimental: The mechanism of inhibition of ATX was determined using recombinant, purified human ATX and FS-3. Final ATX and FS-3 concentrations were 8.3 nM and 1 μM, respectively and the assay buffer with 15 μM fatty acid tree BSA. To calculate IC50, full dose responses were determined for the test compounds. […] Simultaneous non-linear regression, using, WinNonLin® 6.1 (Pharsight, Mountain View, Calif.) was used to assign the mechanism of inhibition. Ki and Ki′ values (the affinity for free enzyme and enzyme substrate complex, respectively) were determined by calculating the lowest averaged percent residuals for each mechanism derived from curve fitting using the Michealis-Menten equations for competitive, uncompetitive, mixed-mode, and non-competitive inhibition.
# [3] = target: T1, recombinant human ATX (Homo sapiens, UniProt Q13822); test: Autotaxin inhibition screening assay (FS-3 FRET substrate); format: biochemical; settings: for remaining activity at 10 µM: 1 μM FS-3, 37° C., read-out: ATX Activity, % control (10 μM); for inhibition at 10 µM: read-out: inhibition (reduction) of FS3 hydrolysis
# Experimental: A 10 μM concentration of the compound is added to 2 nM recombinant human ATX and the FRET (Fluorescence Resonance Energy Transfer) ATX substrate FS-3.
# As the first level of screen, 50 μl of recombinant-ATX (2 nM in final concentration) in assay buffer [(Tris 50 mM, NaCl 140 mM, KCl 5 mM, CaCl2 1 mM, MgCl2 1 mM (pH 8.0)] was mixed with 25 μL of FS-3 (Echelon Biosciences, Inc., Salt lake city, Utah), final concentration 1 μM, and 25 μl of test compound was dissolved in assay buffer with 40 μM bovine serum albumin (Sigma, St. Louis, Mo.) in 96-well Costar black-well plate. FS-3 fluorescence at excitation and emission wavelengths of 485 and 538 nm, respectively, were monitored using a FLEXstation II (Molecular Devices, Sunnyvale, Calif.) for 2 h of incubation at 37° C. The differences between time 0 and 120 min were calculated individually and normalized to the vehicle control. The mean±SD of triplicate samples was expressed as percentage of ATX activity. The ATX activity in the presence of the test compounds was compared to vehicle using the […] p<0.05 was considered significant.
# The first level of testing was done using 10 μM concentrations of the compounds shown in Tables 1 and 2 added to 2 nM recombinant human ATX and the FRET substrate FS-3. After a 2 h incubation the amount of FS3 hydrolyzed was measured and the residual ATX activity was expressed as a percent of the vehicle-treated sample less the autolysis of FS3 in the absence of ATX.
# [4] = target: T1, recombinant human ATX; test: as above; format: biochemical; settings: FS3 hydrolysis
# [5] = affinity for enzyme substrate complex
# [6] = 10 μM compound, 2 nM recombinant human ATX, 2 h
"inhibition at 10 µM [3, 6]",Structure (SMILES),LPC-dependent invasion of the HUVEC monolayer [1],basal rate of invasion [1],pIC50 [2],ATX Mechanism of inhibition [2],"pKi [2, 5]",pKi ([2]; affinity for free enzyme),"remaining activity at 10 µM [3, 6]",inhibition at 10 µM [3],ATX inhibition in dose-response curves (FIG. 10) [4]
,"CCCCCCCCCCCCCCCc1ccc(CP(=O)(O)O)cc1 [Compound 22, 4-Pentadecylbenzylphosphonic acid]",dose-dependently inhibited; also recorded: blockage,did not reduce,6.77,Mixed,6.55,6.57,5.2%,95%,dose-dependently and completely inhibited ATX
83%,"CCCCCCCCCCC/C=C/c1ccc2cc(CP(=O)(O)O)ccc2c1 [Compound 30b, (E)-6-Tridec-1-enyl-naphthalen-2-yl-methylphosphonic acid]",dose-dependently inhibited,did not reduce,5.85,MIXED,6.00,5.82,17.3%,,dose-dependently and completely inhibited ATX
